Consider 21 molecules from patent US20190322676A1, “CERAMIDE GALACTOSYLTRANSFERASE INHIBITORS FOR THE TREATMENT OF DISEASE” (BioMarin Pharmaceutical Inc., priority 2016, published 2019).

Structures can show the parent of a compound that is named as a salt.

Usually IC50 stands for the concentration at which inhibition is half-maximal. High values mean weaker potency, low ones greater potency.

This test addresses T1, human CGT (ceramide galactosyltransferase), CHO/CGT lysate (Homo sapiens, UniProt Q16880).
T1 construct: Full-length human CGT cDNA was cloned into the BamH1/Xho1 site of pcDNA3.1 (+); expressed in transfected cells; host or cells: Chinese hamster ovary (CHO) cells; lysate prepared with M-PER
T1 sequence (Q16880 21-541): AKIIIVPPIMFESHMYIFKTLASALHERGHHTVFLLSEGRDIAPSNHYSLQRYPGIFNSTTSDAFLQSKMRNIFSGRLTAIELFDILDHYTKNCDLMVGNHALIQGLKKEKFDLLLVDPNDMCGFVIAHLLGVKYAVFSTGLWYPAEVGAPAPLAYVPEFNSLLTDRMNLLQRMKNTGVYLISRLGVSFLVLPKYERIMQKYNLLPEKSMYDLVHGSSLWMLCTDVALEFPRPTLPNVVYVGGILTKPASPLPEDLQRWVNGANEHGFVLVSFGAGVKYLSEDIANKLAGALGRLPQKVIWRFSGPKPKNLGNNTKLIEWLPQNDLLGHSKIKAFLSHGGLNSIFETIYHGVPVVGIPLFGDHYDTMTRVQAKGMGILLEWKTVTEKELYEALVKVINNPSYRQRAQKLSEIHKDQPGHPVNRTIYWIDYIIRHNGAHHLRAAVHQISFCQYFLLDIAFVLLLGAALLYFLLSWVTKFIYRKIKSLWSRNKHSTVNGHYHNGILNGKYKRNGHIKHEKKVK
Put plainly: CGT enzyme assay, RapidFire/MS/MS readout (Table 1 ranges with one asterisk *). The conditions noted are these: RapidFire method (range with one asterisk *). Type of test: biochemical. An outline of the steps:
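Lysate (4 μg) of CHO cells transfected with full-length human CGT incubated 1 h at 37 °C with compound (0.001–50 μM) in pH 7.2 HEPES buffer with 10 μM C6-NBD-dihydro-ceramide, 17.5 μM UDP-galactose, Mg2+/Mn2+, CHAPS, BSA, 0.5% DMSO; ** set also contained 0.01% Tween 80. Product quantified by RapidFire/MS/MS, normalized to internal standard; IC50 from sigmoidal variable-slope fits.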
The molecule `NC1CC2CCC(C1)N2C(=O)[C@H](NS(=O)(=O)c1ccc(OCC2CCCCC2)cc1)C(F)(F)c1ccc(-c2ccc(Cl)cc2)cc1` (stereo partly drawn) [Compound 50-2, N-((2S)-3-(3-amino-8-azabicyclo[3.2.1]octan-8-yl)-1-(4′-chloro-[1,1′-biphenyl]-4-yl)-1,1-difluoro-3-oxopropan-2-yl)-4-(cyclohexylmethoxy)benzenesulfonamide trifluoroacetate] came in with an IC50 of 10 to 30 µM.

Regarding `CCCCOc1ccc(C(F)(F)[C@@H](C(=O)N2C3CCC2CC(N)C3)N(C)S(=O)(=O)c2ccc3cc(OC4CCCC4)ccc3c2)cc1` (stereo partly drawn) [Compound 51-1, N-((2R)-3-(3-amino-8-azabicyclo[3.2.1]octan-8-yl)-1-(4-butoxyphenyl)-1,1-difluoro-3-oxopropan-2-yl)-6-(cyclopentyloxy)-N-methylnaphthalene-2-sulfonamide], the half-inhibitory concentration (IC50) was 1 to 10 µM.

For the molecule `CCCCOc1ccc(C(F)(F)[C@H](C(=O)N2C3CCC2CC(N)C3)N(C)S(=O)(=O)c2ccc3cc(OC4CCCC4)ccc3c2)cc1` (stereo partly drawn) [Compound 51-2, N-((2S)-3-(3-amino-8-azabicyclo[3.2.1]octan-8-yl)-1-(4-butoxyphenyl)-1,1-difluoro-3-oxopropan-2-yl)-6-(cyclopentyloxy)-N-methylnaphthalene-2-sulfonamide], the 50% inhibitory concentration (IC50) lay in the range of 1 to 10 µM.

The molecule `CN([C@H](C(=O)N1C2CCC1CC(N)C2)C(F)(F)c1ccc(Cl)cc1)S(=O)(=O)c1ccc2cc(OC3CCCC3)ccc2c1` (stereo partly drawn) [Compound 52-1, N-((2R)-3-(3-amino-8-azabicyclo[3.2.1]octan-8-yl)-1-(4-chlorophenyl)-1,1-difluoro-3-oxopropan-2-yl)-6-(cyclopentyloxy)-N-methylnaphthalene-2-sulfonamide] returned an IC50 below 1 µM.

With `CN([C@@H](C(=O)N1C2CCC1CC(N)C2)C(F)(F)c1ccc(Cl)cc1)S(=O)(=O)c1ccc2cc(OC3CCCC3)ccc2c1` (stereo partly drawn) [Compound 52-2, N-((2S)-3-(3-amino-8-azabicyclo[3.2.1]octan-8-yl)-1-(4-chlorophenyl)-1,1-difluoro-3-oxopropan-2-yl)-6-(cyclopentyloxy)-N-methylnaphthalene-2-sulfonamide], the IC50 was in the range of 30 to 100 µM.

`CCCCOc1ccc(C(F)(F)[C@@H](C(=O)N2CCC(N)CC2)N(C)S(=O)(=O)c2ccc3cc(OC4CCCC4)ccc3c2)cc1` [Compound 53-1, (R)—N-(3-(4-aminopiperidin-1-yl)-1-(4-butoxyphenyl)-1,1-difluoro-3-oxopropan-2-yl)-6-(cyclopentyloxy)-N-methylnaphthalene-2-sulfonamide] gave a 50% inhibitory concentration (IC50) of 1 to 10 µM.

With `CCCCOc1ccc(C(F)(F)[C@H](C(=O)N2CCC(N)CC2)N(C)S(=O)(=O)c2ccc3cc(OC4CCCC4)ccc3c2)cc1` [Compound 53-2, (S)—N-(3-(4-aminopiperidin-1-yl)-1-(4-butoxyphenyl)-1,1-difluoro-3-oxopropan-2-yl)-6-(cyclopentyloxy)-N-methylnaphthalene-2-sulfonamide], the half-maximal inhibitory concentration (IC50) lay within 10 to 30 µM.

Turning to `NC1CC2CCC(C1)N2C(=O)[C@@H](NS(=O)(=O)c1ccc2cc(OC3CCCC3)ccc2c1)C(F)(F)c1ccc(C(F)(F)F)cc1` (stereo partly drawn) [Compound 54-1, N-((2R)-3-(3-amino-8-azabicyclo[3.2.1]octan-8-yl)-1,1-difluoro-3-oxo-1-(4-(trifluoromethyl)phenyl)propan-2-yl)-6-(cyclopentyloxy)naphthalene-2-sulfonamide], the IC50 was below 1 µM.

The molecule `NC1CC2CCC(C1)N2C(=O)[C@H](NS(=O)(=O)c1ccc2cc(OC3CCCC3)ccc2c1)C(F)(F)c1ccc(C(F)(F)F)cc1` (stereo partly drawn) [Compound 54-2, N-((2S)-3-(3-amino-8-azabicyclo[3.2.1]octan-8-yl)-1,1-difluoro-3-oxo-1-(4-(trifluoromethyl)phenyl)propan-2-yl)-6-(cyclopentyloxy) naphthalene-2-sulfonamide] came in with an IC50 of 10 to 30 µM.

Take `NC1CC2CCC(C1)N2C(=O)[C@@H](NS(=O)(=O)c1ccc2cc(OC3CCCC3)ccc2c1)C(F)(F)c1ccc(-c2ccc(C(F)(F)F)cc2)cc1` (stereo partly drawn) [Compound 55-1, N-((2R)-3-(3-amino-8-azabicyclo[3.2.1]octan-8-yl)-1,1-difluoro-3-oxo-1-(4′-(trifluoromethyl)-[1,1′-biphenyl]-4-yl)propan-2-yl)-6-(cyclopentyloxy) naphthalene-2-sulfonamide trifluoroacetate]: the IC50 was below 1 µM.

`NC1CC2CCC(C1)N2C(=O)[C@H](NS(=O)(=O)c1ccc2cc(OC3CCCC3)ccc2c1)C(F)(F)c1ccc(-c2ccc(C(F)(F)F)cc2)cc1` (stereo partly drawn) [Compound 55-2, N-((2S)-3-(3-amino-8-azabicyclo[3.2.1]octan-8-yl)-1,1-difluoro-3-oxo-1-(4′-(trifluoromethyl)-[1,1′-biphenyl]-4-yl)propan-2-yl)-6-(cyclopentyloxy)naphthalene-2-sulfonamide trifluoroacetate] had an IC50 of 1 to 10 µM.

Regarding `NC1CC2CCC(C1)N2C(=O)[C@@H](NS(=O)(=O)c1ccc2cc(OC3CCCC3)ccc2c1)C(F)(F)c1ccc(-c2ccc(F)cc2)cc1` (stereo partly drawn) [Compound 56-1, N-((2R)-3-(3-amino-8-azabicyclo[3.2.1]octan-8-yl)-1,1-difluoro-1-(4′-fluoro-[1,1′-biphenyl]-4-yl)-3-oxopropan-2-yl)-6-(cyclopentyloxy)naphthalene-2-sulfonamide trifluoroacetate], the IC50 is below 1 µM.

With `NC1CC2CCC(C1)N2C(=O)[C@H](NS(=O)(=O)c1ccc2cc(OC3CCCC3)ccc2c1)C(F)(F)c1ccc(-c2ccc(F)cc2)cc1` (stereo partly drawn) [Compound 56-2, N-((2S)-3-(3-amino-8-azabicyclo[3.2.1]octan-8-yl)-1,1-difluoro-1-(4′-fluoro-[1,1′-biphenyl]-4-yl)-3-oxopropan-2-yl)-6-(cyclopentyloxy)naphthalene-2-sulfonamide trifluoroacetate], the 50% inhibitory concentration (IC50) fell in the range of 1 to 10 µM.

`NCC1CCN(C(=O)[C@@H](NS(=O)(=O)c2ccc3cc(OC4CCCC4)ccc3c2)C(F)(F)c2ccc(Br)cc2)CC1` [Compound 57-1, (R)—N-(3-(4-(aminomethyl)piperidin-1-yl)-1-(4-bromophenyl)-1,1-difluoro-3-oxopropan-2-yl)-6-(cyclopentyloxy)naphthalene-2-sulfonamide trifluoroacetate] displayed an IC50 below 1 µM.

On to `NCC1CCN(C(=O)[C@H](NS(=O)(=O)c2ccc3cc(OC4CCCC4)ccc3c2)C(F)(F)c2ccc(Br)cc2)CC1` [Compound 57-2, (S)—N-(3-(4-(aminomethyl)piperidin-1-yl)-1-(4-bromophenyl)-1,1-difluoro-3-oxopropan-2-yl)-6-(cyclopentyloxy)naphthalene-2-sulfonamide trifluoroacetate], for which the IC50 was in the range of 10 to 30 µM.

`CCCCOc1ccc(C(F)(F)[C@@H](C(=O)N2CCC(N)CC2)N(C)S(=O)(=O)c2ccc(OCC3CCCCC3)cc2)cc1` [Compound 58-1, (R)—N-(3-(4-aminopiperidin-1-yl)-1-(4-butoxyphenyl)-1,1-difluoro-3-oxopropan-2-yl)-4-(cyclohexylmethoxy)-N-methylbenzenesulfonamide] displayed an IC50 of 1 to 10 µM.

`CCCCOc1ccc(C(F)(F)[C@H](C(=O)N2CCC(N)CC2)N(C)S(=O)(=O)c2ccc(OCC3CCCCC3)cc2)cc1` [Compound 58-2, (S)—N-(3-(4-aminopiperidin-1-yl)-1-(4-butoxyphenyl)-1,1-difluoro-3-oxopropan-2-yl)-4-(cyclohexylmethoxy)-N-methylbenzenesulfonamide] showed an IC50 of 10 to 30 µM.

In turn, `NC1CC2CCC(C1)N2C(=O)[C@@H](NS(=O)(=O)c1ccc(OCC2CCCCC2)cc1)C(F)(F)c1ccc(C(F)(F)F)cc1` (stereo partly drawn) [Compound 59-1, N-((2R)-3-(3-amino-8-azabicyclo[3.2.1]octan-8-yl)-1,1-difluoro-3-oxo-1-(4-(trifluoromethyl)phenyl)propan-2-yl)-4-(cyclohexylmethoxy)benzenesulfonamide] came in with an IC50 below 1 µM.

`NC1CC2CCC(C1)N2C(=O)[C@H](NS(=O)(=O)c1ccc(OCC2CCCCC2)cc1)C(F)(F)c1ccc(C(F)(F)F)cc1` (stereo partly drawn) [Compound 59-2, N-((2S)-3-(3-amino-8-azabicyclo[3.2.1]octan-8-yl)-1,1-difluoro-3-oxo-1-(4-(trifluoromethyl)phenyl)propan-2-yl)-4-(cyclohexylmethoxy) benzenesulfonamide]: the half-maximal inhibitory concentration (IC50) was in the range of 1 to 10 µM.

`NC1CC2CCC(C1)N2C(=O)[C@@H](NS(=O)(=O)c1ccc(OCC2CCCC2)cc1)C(F)(F)c1ccc(C(F)(F)F)cc1` (stereo partly drawn) [Compound 60-1, N-((2R)-3-(3-amino-8-azabicyclo[3.2.1]octan-8-yl)-1,1-difluoro-3-oxo-1-(4-(trifluoromethyl)phenyl)propan-2-yl)-4-(cyclopentylmethoxy) benzenesulfonamide]: the half-maximal inhibitory concentration (IC50) fell in the range of 1 to 10 µM.

Take `NC1CC2CCC(C1)N2C(=O)[C@H](NS(=O)(=O)c1ccc(OCC2CCCC2)cc1)C(F)(F)c1ccc(C(F)(F)F)cc1` (stereo partly drawn) [Compound 60-2, N-((2S)-3-(3-amino-8-azabicyclo[3.2.1]octan-8-yl)-1,1-difluoro-3-oxo-1-(4-(trifluoromethyl)phenyl)propan-2-yl)-4-(cyclopentylmethoxy)benzenesulfonamide]: the half-maximal inhibitory concentration (IC50) is 10 to 30 µM.
